Key:
[1] = target: T1, GATOR2-Sestrin2 interaction (Homo sapiens, UniProt P58004); assay: Sestrin2-GATOR2 interaction in HEK-293T cells after starvation/restimulation (co-immunoprecipitation); assay type: cell-based
T1 construct: To isolate the FLAG-WDR24/endogenous-Sestrin2 complex; endogenous in cells; host or cells: HEK-293T cells stably expressing FLAG-WDR24; Sestrin2 and the other GATOR2 subunits are endogenous
T1 sequence (P58004 1-480): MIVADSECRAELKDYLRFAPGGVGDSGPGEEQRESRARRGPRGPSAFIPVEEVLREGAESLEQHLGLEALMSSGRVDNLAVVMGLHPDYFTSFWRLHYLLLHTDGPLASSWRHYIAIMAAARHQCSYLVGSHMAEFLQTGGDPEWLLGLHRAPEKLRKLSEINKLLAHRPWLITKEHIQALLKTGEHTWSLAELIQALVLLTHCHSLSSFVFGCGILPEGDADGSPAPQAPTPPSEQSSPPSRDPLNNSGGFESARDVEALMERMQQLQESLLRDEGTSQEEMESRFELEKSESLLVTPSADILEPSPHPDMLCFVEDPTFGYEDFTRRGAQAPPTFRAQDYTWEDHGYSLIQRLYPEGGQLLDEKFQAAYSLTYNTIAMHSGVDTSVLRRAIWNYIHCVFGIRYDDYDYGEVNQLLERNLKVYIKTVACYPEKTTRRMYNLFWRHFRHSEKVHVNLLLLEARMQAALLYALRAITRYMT
Description: In order to determine the effect of amino acids on the GATOR2-Sestrin interaction, transfected cells were incubated in amino acid free RPMI for 50 minutes and then stimulated with amino acids for 10 minutes. For glucose starvation, cells were incubated in RPMI media lacking glucose but containing amino acids and dialyzed serum for 50 minutes, followed by a 10 minute restimulation with 5 mM D-Glucose. For insulin deprivation, cells were incubated in RPMI without serum for 50 minutes and restimulated with 1 μg/ml insulin for 10 minutes. Finally, when Torin1 or Rapamycin was used, cells were incubated with 250 nM of each throughout the starvation and restimulation period.
HEK-293T cells stably expressing FLAG-WDR24 or the control protein FLAG-metap2 (as described in Example 1) were starved for leucine, arginine, or all amino acids for 50 minutes. In some samples, cells were re-stimulated with leucine, arginine, or all amino acids for 10 minutes and then FLAG immunoprecipitates prepared from cell lysates. Immunoprecipitates and lysates were analyzed by immunoblotting for indicated proteins. Removal of either leucine or arginine from the cell media inhibited mTORC1 signaling, as indicated by S6K1 phosphorylation, to similar extents. Strikingly, however, only leucine starvation caused Sestrin2 to bind to GATOR2 inducing the interaction as effectively as complete amino acid starvation (FIG. 9A). […] Leucine starvation and stimulation also strongly regulated the interaction of endogenous Sestrin1, but not endogenous Sestrin3, with GATOR2 (Figure not shown).

Sestrin2-GATOR2 complex = target: T2, Sestrin2-GATOR2 complex (Homo sapiens, UniProt P58004); assay: Amino acids added to ice-cold detergent lysates of amino acid-starved HEK-293T cells, FLAG immunoprecipitation; assay type: binding; details: ice-cold detergent lysates of HEK-293T cells starved for all amino acids
T2 construct: To isolate the FLAG-WDR24/endogenous-Sestrin2 complex; endogenous in cells; host or cells: HEK-293T cells stably expressing FLAG-WDR24; Sestrin2 and the other GATOR2 subunits are endogenous
T2 sequence (P58004 1-480): T1 sequence (P58004 1-480)
Description: HEK-293T cells stably expressing the FLAG-tagged GATOR2 component WDR24 were starved of all amino acids for 50 minutes. Individual amino acids were added pre-lysis to the cell culture media or post-lysis to cell lysates prior to FLAG immunoprecipitation.
We next tested if leucine acts directly on the Sestrin2-GATOR2 complex.

Sestrin3 = target: T3, Sestrin3 (Homo sapiens, UniProt P58005); assay: [3H]-leucine binding to FLAG-Sestrin3 immunoprecipitated from HEK-293T cells; details: FLAG-tagged protein from HEK-293T
T3 construct: expressed in transfected cells; host or cells: HEK-293T, transient transfection of a pRK5-based cDNA plasmid, anti-FLAG immunoprecipitation
T3 sequence (P58005 1-492): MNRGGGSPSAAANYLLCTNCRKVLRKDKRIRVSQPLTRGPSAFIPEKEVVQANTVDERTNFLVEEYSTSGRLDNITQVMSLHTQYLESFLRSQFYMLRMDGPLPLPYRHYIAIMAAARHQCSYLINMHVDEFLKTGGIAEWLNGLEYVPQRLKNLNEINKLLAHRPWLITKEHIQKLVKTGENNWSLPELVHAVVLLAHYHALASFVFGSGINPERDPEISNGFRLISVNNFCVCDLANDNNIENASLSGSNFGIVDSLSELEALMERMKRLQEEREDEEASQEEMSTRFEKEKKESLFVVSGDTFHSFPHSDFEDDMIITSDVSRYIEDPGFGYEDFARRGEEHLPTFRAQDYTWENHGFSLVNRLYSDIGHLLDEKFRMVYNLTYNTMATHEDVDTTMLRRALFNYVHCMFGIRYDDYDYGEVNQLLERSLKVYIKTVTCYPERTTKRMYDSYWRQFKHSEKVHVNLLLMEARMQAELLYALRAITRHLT
Description: Four million HEK-293T cells were plated in a 15 cm plate four days prior to the experiment. Each plate yielded the protein for one sample. Forty-eight hours after plating, the cells were transfected via the polyethylenimine method (O. Boussif et al., PNAS (USA), 92:7297-7301 (1995)) with the pRK5-based cDNA expression plasmids indicated in the figures in the following amounts: 5 μgFLAG-Sestrin2; 12 μg of the negative control Rap2A; 5 μg WDR24; 2 μg WDR24 with 4 μg each of HA-Seh1L, HA-Sec13, HA-Mios, and HA-WDR59; 12 […] (CG11299-PD); 12 μgFLAG-Sestrin1.1; 12 μg FLAG-Sestrin1.2; 12 μg FLAG-Sestrin3; 12 μg FLAG-Sestrin2 mutants (L261A, E451A, S190A) and up to 20 μg total DNA with empty-PRK5. Forty-eight hours after transfection cells were lysed as described in Example 1. […]
For the binding assays, two tubes at a time were washed as previously indicated for immunoprecipitations. […] With a cut tip, each sample was mixed well and three 10 μl aliquots were separately quantified using a TriCarb® scintillation counter (PerkinElmer). This process was repeated in pairs for each sample, to ensure similar incubation and wash times for all samples analyzed across different experiments.

SMILES: CC(C)C[C@H](N)C(=O)O [leucine]
- EC50 ([1]; HEK-293T starved of leucine 50 minutes, restimulated 10 minutes, read-out: half-maximal effect on the Sestrin2-GATOR2 interaction in cells): 20 to 40 µM
- effect of re-addition on Sestrin2 binding to GATOR2 in cells ([1]; starved 50 minutes, re-stimulated 10 minutes): rapidly reversed the binding
- effect on Sestrin2-GATOR2 interaction when added to cell lysates (Sestrin2-GATOR2 complex): abrogated the interaction
- binding of leucine to Sestrin3 (Sestrin3): only slightly above background

Reference: patent US10168338B2, “Methods of identifying modulators of sestrin-gator-2 interaction for modulating mTORC1 activity” (Whitehead Institute for Biomedical Research, priority 2014, dated 2019)
